For seven compounds, GI50 and TGI results are on record in PubChem BioAssay (NCI).

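Following 48 hours of exposure in 96-well plates, responses at five concentrations were used to interpolate endpoints linearly. Here, GI50 denotes the concentration required for 50% inhibition of growth. TGI: total growth inhibition.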 A value given as a limit tells only on which side of the number the result lay.

Test systems include DU-145 prostate; COLO 205 colon; RPMI-8226 leukemia; NCI-H23 lung; SK-MEL-28 melanoma; SN12C renal; U251 CNS; MCF7 breast; HL-60(TB) leukemia; SK-OV-3 ovarian.
Assay in all cases: inhibition of tumour cell growth, NCI panel, 48 h

With `CCOC(=O)C(=Cc1c(-c2ccccc2)[nH]c2ccccc12)C(=O)OCC`, the GI50 was 9.69 µM with DU-145 prostate; 4.81 µM in the test on COLO 205 colon; 0.219 µM in the test on RPMI-8226 leukemia; 2.56 µM with NCI-H23 lung; 7.4 µM with SK-MEL-28 melanoma; 5.04 µM with SN12C renal. Further, the GI50 with U251 CNS was 4.91 µM; with MCF7 breast it was 4.49 µM; with HL-60(TB) leukemia it was 4.19 µM; in the test with SK-OV-3 ovarian, 13.6 µM. The TGI in the test on DU-145 prostate was 28.4 µM; in the test on COLO 205 colon, 16.3 µM; with RPMI-8226 leukemia, 3.28 µM; in the test on NCI-H23 lung, 11.7 µM; in the test on SK-MEL-28 melanoma, 21.6 µM; in the test with SN12C renal, 55 µM. For the same compound, the TGI in the test on U251 CNS was 35.6 µM; in the test on MCF7 breast, 18 µM; in the test with HL-60(TB) leukemia it was 35.5 µM; in the test on SK-OV-3 ovarian, 49.2 µM.
As for `COC12C=C/C(=C(/C(=O)OCc3csc(SC)n3)C(=O)CCCCCCCCC3(OC)C=C/C(=C(/C(=O)OCc4cnc(SC)s4)C(=O)CCCCCCCC1)O3)O2` (stereo not drawn), the GI50 is 5.39 µM in the test with DU-145 prostate; 3.44 µM with COLO 205 colon; 0.946 µM with RPMI-8226 leukemia; 2.5 µM with NCI-H23 lung; 0.955 µM in the test with SK-MEL-28 melanoma; 3.63 µM in the test with SN12C renal. For the same compound, the GI50 with U251 CNS was 3.98 µM; in the test on MCF7 breast, 1.13 µM; in the test on HL-60(TB) leukemia, 3.1 µM; with SK-OV-3 ovarian, 9.06 µM. In addition, the TGI in the test on DU-145 prostate, in the test with COLO 205 colon, with RPMI-8226 leukemia, in the test with NCI-H23 lung, with SK-MEL-28 melanoma and in the test with SN12C renal was more than 100 µM each time. Besides, the TGI is 43.6 µM in the test on U251 CNS, more than 100 µM with MCF7 breast, more than 100 µM in the test with HL-60(TB) leukemia and more than 100 µM in the test with SK-OV-3 ovarian.
For `CCCCCCCCCCCCNC(=O)[C@H]1CSC(c2ccsc2)N1` (stereo partly drawn), the GI50 in the test with DU-145 prostate is 0.979 µM; in the test on COLO 205 colon, 7.95 µM; in the test on RPMI-8226 leukemia, 1.72 µM; with NCI-H23 lung, 0.992 µM; with SK-MEL-28 melanoma, 0.814 µM; with SN12C renal it was 0.911 µM. The GI50 in the test with U251 CNS is 0.875 µM; with MCF7 breast it was 0.879 µM; with HL-60(TB) leukemia, 0.91 µM; in the test on SK-OV-3 ovarian it was 0.955 µM. In addition, the TGI with DU-145 prostate was determined as 1.82 µM; in the test on COLO 205 colon it was 15.9 µM; with RPMI-8226 leukemia, 5.69 µM; in the test on NCI-H23 lung, 1.94 µM; in the test on SK-MEL-28 melanoma, 1.54 µM; in the test on SN12C renal it was 1.64 µM. The TGI was found to be 1.61 µM with U251 CNS, 1.71 µM with MCF7 breast, 2.31 µM with HL-60(TB) leukemia and 1.66 µM in the test with SK-OV-3 ovarian.
Take `N#CC1=C(N)Oc2c(sc3c(Br)cccc23)C1c1ccc(F)cc1` (stereo not drawn): the GI50 in the test with DU-145 prostate is 0.333 µM; with COLO 205 colon, 0.366 µM; in the test with RPMI-8226 leukemia, 0.482 µM; in the test with NCI-H23 lung, 0.416 µM; in the test on SK-MEL-28 melanoma, 1.61 µM; in the test with SN12C renal it was 1.22 µM. The GI50 in the test on U251 CNS was 0.473 µM; with MCF7 breast, 0.273 µM; in the test on HL-60(TB) leukemia, 0.204 µM; with SK-OV-3 ovarian, 0.471 µM. Further, the TGI in the test with DU-145 prostate was determined as 10.6 µM; with COLO 205 colon, 1.69 µM; with RPMI-8226 leukemia, 19.7 µM; in the test with NCI-H23 lung, 17.9 µM; in the test with SK-MEL-28 melanoma, 28.2 µM; in the test on SN12C renal, 18.7 µM. Further, the TGI in the test with U251 CNS came out at 13.4 µM; in the test with MCF7 breast, 14.3 µM; with HL-60(TB) leukemia it was 1.02 µM; in the test with SK-OV-3 ovarian, 18.6 µM.
Take `NC1(C(=O)O)CSSC1`: the GI50 with DU-145 prostate was 7.63 µM; in the test on COLO 205 colon, 11.8 µM; with RPMI-8226 leukemia, 16.8 µM; in the test with NCI-H23 lung, 3.02 µM; in the test on SK-MEL-28 melanoma, 3.14 µM; with SN12C renal, 3 µM. Moreover, the GI50 with U251 CNS is 3.58 µM; with MCF7 breast, 3.65 µM; in the test with HL-60(TB) leukemia, 2.82 µM; in the test with SK-OV-3 ovarian it was 20.3 µM. For the same compound, the TGI in the test on DU-145 prostate was more than 100 µM; in the test on COLO 205 colon it was 27.1 µM; with RPMI-8226 leukemia it was 50.8 µM; with NCI-H23 lung, 14.8 µM; in the test on SK-MEL-28 melanoma, 10.7 µM; in the test on SN12C renal, 12.3 µM. In addition, the TGI with U251 CNS amounted to 22.6 µM; in the test on MCF7 breast, 23.9 µM; in the test with HL-60(TB) leukemia, 11.9 µM; with SK-OV-3 ovarian, 82.5 µM.
Consider `O=C(Nc1nc2ccc(F)cc2s1)c1cccnc1Nc1ccc(Cl)cc1Cl`, for which the GI50 in the test with DU-145 prostate was 3.22 µM; in the test on COLO 205 colon, 1.72 µM; in the test with RPMI-8226 leukemia, 1.49 µM; in the test on NCI-H23 lung, 2.28 µM; with SK-MEL-28 melanoma, 3.69 µM; in the test with SN12C renal, 2.65 µM. Besides, the GI50 was 2.92 µM with U251 CNS, 2.73 µM in the test on MCF7 breast, 2 µM with HL-60(TB) leukemia and 2.26 µM with SK-OV-3 ovarian. Further, the TGI in the test on DU-145 prostate worked out at 13.4 µM; with COLO 205 colon, 3.81 µM; in the test on RPMI-8226 leukemia, 9.07 µM; in the test on NCI-H23 lung, 9.56 µM; with SK-MEL-28 melanoma, 18.6 µM; in the test with SN12C renal, 13.7 µM. For the same compound, the TGI worked out at 12 µM with U251 CNS, 13 µM in the test on MCF7 breast, 5.7 µM with HL-60(TB) leukemia and 7.38 µM in the test with SK-OV-3 ovarian.
For the compound `CC(=O)Nc1ccc2c(c1)CN1C(=O)c3ccccc3C1=N2`, the GI50 in the test with DU-145 prostate, with COLO 205 colon, in the test on RPMI-8226 leukemia, with NCI-H23 lung, with SK-MEL-28 melanoma and in the test on U251 CNS was more than 100 µM each time. The GI50 in the test on MCF7 breast, in the test on HL-60(TB) leukemia and with SK-OV-3 ovarian was more than 100 µM in each case. Also, the TGI in the test with DU-145 prostate, in the test on COLO 205 colon, in the test on RPMI-8226 leukemia, with NCI-H23 lung, in the test with SK-MEL-28 melanoma and in the test with U251 CNS was more than 100 µM in each case. Moreover, the TGI in the test with MCF7 breast, in the test with HL-60(TB) leukemia and in the test on SK-OV-3 ovarian was more than 100 µM in each case.
